Consider 70 molecules from PubChem BioAssay AID179 (DTP/NCI, 2004).

The experiment deals with CEM cells HIV-1 protection, formazan growth assay. The experiment can be described thus: NCI AIDS Antiviral Assay. As to conditions: for IC50: measured here: growth of uninfected CEM cells. The procedure, abridged:
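Five concentrations of each compound were applied to infected and uninfected human CEM cells. Protection from HIV-1 was judged from growth measured with a soluble formazan assay.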

SMILES strings stand for the structures. Active and inactive are the calls of the source.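 How the source made its calls: active means compounds giving half or more protection of infected cells from virus-caused growth loss, again on retest; inactive means the rest.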 Where a SMILES comes first, the peptide text is derived from it.

With `CC(C)(C)C(=O)OC(N)/C=C/c1ccccc1` (stereo not drawn), the EC50 (commonly the concentration giving half of the maximal effect) was above 200 µM and the IC50 (as a rule, the concentration at which inhibition is half-maximal) was above 200 µM.
Regarding `O=[N+]([O-])c1ccc(CSSCc2ccc([N+](=O)[O-])cc2)cc1`, the EC50 was above 200 µM and the IC50 is 17.8 µM.
Take `CCOC(=O)C(C)c1nc2c(Cl)c3ncccc3cc2[nH]c1=O` (stereo not drawn): the EC50 is above 200 µM and the IC50 was above 200 µM.
In the case of `CC1(C)COC(c2ccc(C(F)(F)F)cc2C(O)c2ccc3ccccc3c2)=N1` (stereo not drawn), the outcome was inactive.
`O=C(c1nc2ccc(Cl)cc2[nH]c1=O)C(O)c1ccco1` (stereo not drawn): the EC50 was above 8.13 µM and the IC50 was 2.57 µM.
As to `CC(=O)NC(ON1C(=O)COc2ccccc21)C(Cl)(Cl)Cl` (stereo not drawn), the EC50 was above 100 µM and the IC50 is above 100 µM.
Regarding `O=c1oc2ccccc2c(O)c1Sc1c(O)c2ccccc2oc1=O`, the result was inactive.
On the same count and under the same terms, the same measure for `C[Si](C)(C)OC1(C#N)C2C3CC4C2C(=O)C2C4C3C21` (stereo not drawn): “inactive”; for `CCN(CC)C1=Nc2ccccc2-n2ccnc2C1`: “inactive”.
As for `N#Cc1c(N)c(-c2ccc(Cl)cc2)c(F)c2ccccc12`, the EC50 is 178 µM and the IC50 was above 200 µM.
On the same counts, the results for `CCSC1=CC(Cc2ccc(OC)cc2)N(C(=O)OC)C1` (stereo not drawn) are above 85.1 µM and 60.3 µM.
Regarding `CCCCOC(=O)NC(Nc1ccc(S(=O)(=O)Nc2ncccn2)cc1)(C(F)(F)F)C(F)(F)F`, the EC50 was above 200 µM and the IC50 is above 200 µM.
For the molecule `COc1ccc(-c2oc(/C=N/NC(N)=S)c([N+](=O)[O-])c2-c2ccc(OC)c(OC)c2)cc1OC`, the EC50 is above 20.4 µM and the IC50 is above 20.4 µM.
Consider `NNC(=O)C1C2c3ccccc3C(c3ccccc32)C1C(=O)O` (stereo not drawn), for which the EC50 was above 200 µM and the IC50 was above 200 µM.
With `CCOC(=O)/C=C\[C@H]1OC(C)(C)O[C@H]1[C@H](O)[C@H]1COC(C)(C)O1`, the EC50 is above 20 µM and the IC50 stood at 11.2 µM.
The matching figures for `CN(C)c1cccc(/C=C(\C#N)c2ccccc2)c1`: above 200 µM and 0.339 µM.
The matching figures for `COc1cc2c(c(O)c1OC)C(O)C1CCC(=O)N1C2c1ccc2c(c1)OCO2` (stereo not drawn): above 200 µM and 135 µM.
On to `COc1ccc(/C=c2\sc3n(c2=O)C(N)=C(C#N)C(c2ccc(OC)cc2)C=3c2nc3ccccc3[nH]2)cc1` (stereo not drawn), for which the EC50 was above 7.08 µM and the IC50 was above 7.08 µM.
In the case of `C/C(=N\NC(=S)N(C)CCN(C)C(=S)N/N=C(\C)c1ccccn1)c1ccccn1`, the EC50 was above 200 µM and the concentration for half-maximal inhibition (IC50) came to 2.45 µM.
The matching figures for `CN1C(=O)C(O)(C2=C3OCOC3=CC(=O)C2=O)c2ccccc21` (stereo not drawn): above 200 µM and 32.4 µM.
On the same counts, the results for `CC1OC(O[C@H]2C3C=CO[C@@H](OC4OC(CO)C(O)C(O)C4O)C3[C@@]3(COC(=O)/C=C/c4ccc(O)cc4)O[C@@H]23)C(O)C(O)C1O` (stereo partly drawn) are above 200 µM and above 200 µM.
The matching figures for `Cc1cccc(C(O)c2ccncc2)c1O` (stereo not drawn): above 200 µM and 191 µM.
As to `CN1C(=O)CCC1(O)C1C=CC=CC1` (stereo not drawn), the EC50 is above 1290 µM and the IC50 is above 1290 µM.
As to `N/N=C(\c1ccccc1)c1cccs1`, the EC50 was above 200 µM and the IC50 is above 200 µM.
`CC(=O)OC12CCCC(=O)C1C1CC/C=C\CCC12` (stereo not drawn): the EC50 is above 170 µM and the IC50 amounted to 105 µM.
The matching figures for `Oc1ccc(Cl)cc1Sc1cc(Cl)ccc1O`: above 200 µM and 7.41 µM.
For `Cc1ccc(S(=O)(=O)C(CCC(=O)c2ccccc2)(CCC(=O)c2ccccc2)[N+](=O)[O-])cc1`, the EC50 was above 10.7 µM and the IC50 is above 10.7 µM.
Consider `C=CCCCCCCCCC(=O)ON(Cc1ccc(O)c(OC)c1)C(=O)C(F)(F)F`, for which the EC50 is above 200 µM and the IC50 was above 200 µM.
Consider `Cn1cc(NC(=O)c2nc(NC(=O)c3nc(NC(=O)c4ccc(C(=O)Nc5cn(C)c(C(=O)Nc6cn(C)c(C(=O)Nc7cn(C)c(C(=O)NCCC(=N)N)n7)n6)n5)nc4)cn3C)cn2C)nc1C(=O)NCCC(=N)N`, for which the EC50 was above 50.1 µM and the IC50 came to 1.17 µM.
The matching figures for `c1cc(-c2cn3c(n2)SCC3)ccn1`: above 437 µM and 182 µM.
On the same counts, the results for `CC1(C)C(=O)C2(OS(=O)(=O)C(F)(F)F)CCC1C2` (stereo not drawn) are above 200 µM and above 200 µM.
The matching figures for `CCOC(=O)C(=O)CC1=CC=CC2=NC(=O)CCN12`: above 200 µM and above 200 µM.
For `CC(=O)c1sc(Nc2nnc(-c3ccc(-c4nnc(Nc5nc(C)c(C(C)=O)s5)o4)cc3)o2)nc1C`, the outcome was inactive.
Regarding `COc1ccc(-c2c(O)c3cccc(-c4ccccc4)c3oc2=O)cc1`, the EC50 is above 200 µM and the IC50 is 93.3 µM.
On the same counts, the results for `CC(=O)OC(C)(C)CCC(=O)[C@](C)(O)[C@H]1[C@H](O)C[C@@]2(C)[C@@H]3CC=C4C(C)=C(OC5OC(CO)C(O)C(O)C5O)C(=O)C[C@@H]4[C@]3(C)C(=O)C[C@]12C` (stereo partly drawn) are above 200 µM and above 200 µM.
On the same counts, the results for `Cc1ccccc1N1OS(=O)(=O)CC1(C#N)c1ccccc1` (stereo not drawn) are above 83.2 µM and above 83.2 µM.
The matching figures for `CCCCCC(C)SC1(C(=O)OC)CC(OC(C)=O)C(NC(C)=O)C([C@H](OC(C)=O)[C@@H](COC(C)=O)OC(C)=O)O1` (stereo partly drawn): above 200 µM and 63.1 µM.
`Cc1ccccc1N(CC(=O)O)S(=O)(=O)c1ccccc1`: the result was inactive.
Regarding `O=C(Nc1ccc(Cl)cc1)c1cc(S(=O)(=O)NC2=NC(c3ccccc3)c3cc(Cl)ccc3N2)c(SSc2cc(Cl)c(C(=O)Nc3ccc(Cl)cc3)cc2S(=O)(=O)NC2=NC(c3ccccc3)c3cc(Cl)ccc3N2)cc1Cl` (stereo not drawn), the EC50 was above 200 µM and the IC50 is above 200 µM.
Turning to `Cc1ccc2c(c1)C/C(=C\c1ccccc1C(=O)O)C2=O`, the EC50 was above 200 µM and the IC50 was 102 µM.
The matching figures for `O=C(CC(C(=O)c1ccsc1)c1ccsc1)c1ccsc1` (stereo not drawn): above 200 µM and 22.4 µM.
Take `C[C@H]1c2cccc(O)c2C(O)=C2C(=O)[C@]3(O)C(O)=C(C(N)=O)C(=O)[C@@H](N(C)C)[C@@H]3[C@@H](O)[C@@H]21`: the EC50 is above 186 µM and the IC50 came to 8.32 µM.
Regarding `Cc1ccc(C(=O)/C=C/c2ccc3c(c2)OCO3)cc1`, the EC50 was above 19.5 µM and the IC50 is above 19.5 µM.
On to `COc1cc(C(=O)C(CO)Oc2ccccc2OC)ccc1O` (stereo not drawn), for which the EC50 was above 794 µM and the IC50 turned out to be 123 µM.
On the same counts, the results for `CSCS(=O)C[C@H](CO)NC(=O)/C=C/c1c(C)[nH]c(=O)[nH]c1=O` (stereo partly drawn) are above 692 µM and 0.447 µM.
On the same counts, the results for `Cn1c(C2CCCc3c2c2ccccc2n3C)cc2ccccc21` (stereo not drawn) are above 16.6 µM and above 16.6 µM.
The matching figures for `COc1ccc(C2=C(OC(C)=O)c3cccn3-c3ccccc3S2)cc1`: above 200 µM and 1.32 µM.
As for `O=C1OCC/C1=C\c1ccc(O)cc1`, the EC50 was above 1320 µM and the IC50 came out at 240 µM.
Turning to `COc1ccc2c(c1)[C@@H]1c3cc(OC)c(OC)cc3CCN1CCC2`, the EC50 was above 200 µM and the IC50 is above 200 µM.
For `Nc1nc(C(=O)O)c(N)c(=O)[nH]1`, the EC50 is above 200 µM and the IC50 was above 200 µM.
Regarding `CNC(=S)N/N=C(\C(=N/NC(=S)NC)c1ccccn1)c1ccccn1`, the EC50 is above 0.2 µM and the 50% inhibitory concentration (IC50) came out at 0.0513 µM.
The matching figures for `O=c1c2c(F)c(F)c(F)c(F)c2sc2nccn12`: above 200 µM and 3.89 µM.
The matching figures for `COc1ccccc1CNCc1nc2ccccc2[nH]1`: above 200 µM and 155 µM.
On the same counts, the results for `CC(=Nc1ccccc1C(=O)O)c1c(O)ccc2c(C)cc(=O)oc12` are above 107 µM and above 107 µM.
In the case of `COc1cc2c(cc1-c1coc3cc(OCC=C(C)C)ccc3c1=O)OCO2`, the EC50 is above 200 µM and the IC50 was 7.08 µM.
For the molecule `Cc1cccc(C(=O)O)c1C(=O)c1cccc2ccccc12`, the result was inactive.
On the same count and under the same terms, in the case of `CN=C(SC)N(C)c1nc(=[N+](C)C)ss1` it was “inactive”.
Take `Cc1cc2c(c(=O)o1)C1=S(SC(c3ccccc3)=C1)S2` (stereo not drawn): the EC50 is 75.9 µM and the 50% inhibitory concentration (IC50) was above 200 µM.
On the same counts, the results for `C=CCC(C(=O)OC)C1(C(=O)OC)c2[nH]c3ccccc3c2CCN1Cc1ccccc1` (stereo not drawn) are above 39.8 µM and above 39.8 µM.
On the same counts, the results for `O=C(OCC1OC(c2nn[nH]n2)C(OC(=O)c2ccccc2)C1OC(=O)c1ccccc1)c1ccccc1` (stereo not drawn) are above 200 µM and 70.8 µM.
On the same counts, the results for `NCCCCC(NC(=O)C(CO)NC(=O)C(CO)NC(=O)CN)C(=O)NC(CO)C(=O)NC(CCCCN)C(=O)N1CCCC1C(=O)NC(CCCCN)C(=O)NC(CC(=O)O)C(N)=O` (stereo not drawn) (H-GSSKSKPKD-NH2; configuration not given here) are above 269 µM and above 269 µM.
Turning to `CNc1ncnc2c1ncn2C1C=CC(COS(N)(=O)=O)C1` (stereo not drawn), the EC50 was above 200 µM and the IC50 is above 200 µM.
As to `COC(=O)/C=C1\C(=O)N(C(C)=O)c2ccccc21`, the EC50 was above 200 µM and the IC50 is 3.31 µM.
As to `Clc1ccc(OCc2nnc3n2N=C(c2ccc(Br)cc2)CS3)cc1`, the outcome was inactive.
Same read-out and setting: in the case of `COC1OC(CO)C(O)C1N` (stereo not drawn) it was “inactive”.
Turning to `O=C(O)C(O)C(O)C(O)C(O)C(O)C(O)CO` (stereo not drawn), the result was inactive.
For the molecule `C=C1CN(S(=O)(=O)c2ccc(C)cc2)CCCCN(Cc2ccccc2)CCCN(S(=O)(=O)c2ccc(C)cc2)C1`, the EC50 was above 200 µM and the IC50 was determined as 6.92 µM.
On the same counts, the results for `COc1ccccc1NC(=O)CC(=O)n1nc(C)c(N=Nc2ccccc2C(=O)O)c1C` are above 302 µM and 245 µM.
In the case of `CN(C)CCCn1cnc2ncccc2c1=O`, the result was inactive.
Consider `Cc1nn(C(=O)c2ccccc2O)c2c1C(c1ccccc1O)SC(N)=N2` (stereo not drawn), for which the EC50 was above 2 µM and the IC50 came out at 0.933 µM.
